The conditions of data set [1]: cited from earlier work.
In data set [2] the test system is stress ulcer formation. Description: WIS: Restraint and Water Immersion Stress-Induced Ulcer Inhibition Test. It is filed as in vivo, rat (male Crj:SD or Slc:SD). The following applies: rat; for WIS: ulcer formation inhibitory rate: 100 mg/kg oral, 7 hours stress. How it is done: WIS: Restraint and Water Immersion Stress-Induced Ulcer Inhibition Test
The degree of inhibition of the stress ulcer formation is tested.
Male Crj:SDor Slc:SD rats (6 to 7-week-old) were fasted overnight, but allowed free access to water. Each group has 5 to 8 of these rats. The sample compound was dissolved or suspended in an aqueous solution of 0.3% sodium carboxymethylcellulose or 0.05% Tween 80 and then was orally administered (100 mg/10 ml/kg). To a control group, the vehicle was administered. 10 minuts later, the rats were placed in a stress cage and immersed to the level of xipfoid process in a water bath (21° C.) for 7 hours. At the end of the stress, the rats were sacrificed by inhalation of ether or carbon dioxide. Then, the stomach of each was removed, inflated by injecting 10 ml of 5% formalin neutral buffer solution, and immersed in 1% formalin neutral buffer solution for 30 minutes or more to be fixed. The stomach was incised along the greater curvature and then the length of each erosion in the glandular portion was determined under dissecting microscope. The sum of the length of erosions per stomach was defined as ulcer index (UI).
The effect obtained when 100 mg/kg of the sample compound had been administered was expressed as ulcer formation inhibitory rate (%) as follows:
ulcer formation inhibitory rate (%)=[1-(UI in sample group/UI in control group)]×100

For data set [3], the system named is isolated gastric fundic gland. Description: CAP: Acid Secretion Inhibition Test In Vitro ([14C]-aminopyrine uptake). It is filed as cell-based, rabbit (male Japanese White). The following applies: Oryctolagus cuniculus, final concentration 10^-5 M, histamine 10^-5 M, rabbit gastric fundic gland; read-out: CAP: acid secretion inhibitory rate. As to the method:
CAP: Acid Secretion Inhibition Test In Vitro
The acid secretion inhibitory activity in a cell level is studied. It can also be used for studying the mechanism of the effect. […]
ii-a) Preparation of isolated gastric fundus gland suspension
First, an isolated gastric fundic gland sample was prepared. Namely, a male Japanese White rabbit (2.5 to 3 kg) was anesthetized to death with Nembutal™ and then the abdomen was incised. Immediately thereafter, the stomach was removed and, after its pyloric and cardiac antrum were severed, incised along its greater curvature into two sheets. The gastric contents adhering to the mucosal surface was washed out with ice-cooled PBS (-) and then carefully washed therein. The gastric wall was spread on a cork board with its mucosal surface facing up and the feed and mucus thereon were completely removed with sterile gauze. The mucosa was separated therefrom by a spatula and then collected in ice-cooled PBS (-). After being washed twice with PBS (-), the mucosa was minced into 2-3mm^3 pieces by scissors. These pieces were further washed twice with a nutrient solution. The nutrient solution comprises 132.4 mM of NaCl, 5.4 mM of KCl, 5 mM of Na2 HPO4 ·12H2 O, 1 mM of NaH2 PO4 ·2H2 O, 1.2 mM of MgSO4, 1 mM of CaCl2, 25 mM of HEPES, 2mg/ml of glucose, and 1 mg/ml of BSA. Into 70 ml of the nutrient solution containing 1 mg/ml of collagenase, minced mucosal pieces were dispersed and intensely stirred in a conical flask with a stirrer at 37° C. for 40 to 60 minutes. During this period, 100% O2 was sprayed on the nutrient solution surface and the pH was appropriately measured such that it was immediately adjusted to pH 7.4, when the value was therebelow, with a base. The nutrient solution was added to the reaction solution so as to attain the total amount of about 200 ml. After being filtered through a mesh, the suspension was divisionally introduced into 50 ml centrifuge tubes and left for 15 minutes such that gastric fundic gland was deposited. The supernatant was repeatedly removed by an aspirator, dispersed in the nutrient solution, and then left such that the gastric fundic gland was washed three times. At this time, without using a pipette, the suspension was alternately introduced into two centrifuge tubes so as to effect dispersion. The number of cells was counted under microscope and adjusted to 1.6×10^6 cells/ml. […]
ii-b) [^14 C]-aminopyrine uptake test
Then, [^14 C]-aminopyrine uptake test was performed. After an Eppendorf tube was weighed, 10 μl (final concentration: 10^-5 M) of histamine dissolved in the above-mentioned nutrient solution, 10 μl (final concentration: 10^-5 M) of the test compound dissolved in DMSO, and 10 μl (final concentration: 0.05 μCi/ml) of [^14 C]-aminopyrine diluted with the nutrient solution were introduced therein and then 970 μl of the isolated gastric fundic gland suspension prepared above were added thereto. Subsequently, this mixture was shaken at 37° C. for 40 minutes at 125 cycles/minute. After being centrifuged for 30 minutes 200 μl of its supernatant was collected into a mini-vial, while the rest was removed by an aspirator. The gland pellet was completely dried as the tube with its lid being opened was kept for one night in a drying oven at 80° C. and then the lid was closed and the weight was determined at room temperature. Then 100 μl of 1N KOH were added thereto and the tube with its lid being closed was treated at 60° C. for 1 to 2 hours so as to dissolve the pellet. Then, the contents thereof were transferred to a mini-vial. Into the mini-vial containing the supernatant or gland pellet, 4 ml of Atomlite™ were added and then the radioactivity was measured by a liquid scintillation counter. Here, after the radioactivity of the gland pellet was corrected by using a sample in which 20 mM of NaSCN were added so as to cancel the hydrogen ion concentration gradient, the integration ratio of aminopyrine specifically trapped by the gland pellet was calculated. […]

Data set [4] in a line: MTT: Cell Damaging and Protecting Effect Test. The following applies: rabbit, gastric mucosal cells, final concentration 10^-4 M, 4 hours; smaller value is better; read-out: MTT: cell damaging rate. In kind it is cell-based, rabbit (male Japanese White). From the text: MTT: Cell Damaging and Protecting Effect Test
It is confirmed that there is no toxicity in cell level. Those having a toxicity in cell level are inappropriate as an anti-ulcer drug.
A male Japanese White rabbit (2.5 to 3 kg) was anesthetized to death by Nembutal™ and, immediately thereafter, its stomach was removed. The greater curvature of the stomach was incised so as to remove the stomach contents therefrom. After the mucosal surface was washed with HBSS (Hanks' Balanced Salt Solution), the stomach in ice-cooled HBSS was transferred to a laboratory. Then, after the pyloric antrum was removed, the gastric corpus mucosa was separated by a spatula and then minced into 2 to 3 mm^3 pieces in BME (Basal Medium Eagle). Thereafter, these pieces were shaken at 120 to 130 cycles/minute for 15 minutes at 37° C. in BME 60ml containig 280 U/ml of dispase and 30 to 50 U/ml of collagenase. Here, the concentration of collagenase was appropriately changed for each lot in view of the state of cells. The pieces were washed twice with EBSS (Earle's Balanced Salt Solution) containing 1 mM of EDTA and then shaken in MEM (Minimum Essential Medium) containing 1 mM of EDTA at 37° C. for 5 minutes. Subsequently, they were shaken in the dispase and collagenase having the same concentrations as those mentioned above for 15 minutes so as to remove the supernatant and then further shaken at 37° C. for 50 to 60 minutes at 120 to 130 cycles/minute. Then, after being washed twice with HBSS, Ham F12 containing 2% of Ultrocer G™ was used to attain the concentration of 1×10^6 cells/ml. Thus formed suspension was dispensed in each well of a 96-well plate by 200 μl. The plate was incubated in the atmosphere composed of 5% CO2 and 95% air at 37° C. for three days so as to attain a confluent state and then subjected to MTT assay.
The sample compound was dissolved in DMSO so as to attain a concentration of 10^-2 M and then diluted with HBSS containing 2% of Ultrocer G™ so as to attain a final concentration of 10^-4 M. To each group, which 8 wells were used for, 10 μl of MTT reagent were added immediately after 100 μl of the medium in each well were exchanged for same volume of the resulting solution of the sample compound. After being incubated in an atmosphere composed of 5% CO2 and 95% air at 37° C. for 4 hours, thus formed solution was centrifuged and then its supernatant was discarded. Subsequently, 100 μl of 100% ethanol were added to the residue so as to dissolve MTT formazan. Then, the absorbance (OD: 570 to 630) was measured by a microplate reader. This method utilizes a phenomenon in which MTT is changed to MTT formazan only by mitochondria of living cells so as to change color.
The cell damaging or cell protecting effect of the sample compound at the final concentration of 10^-4 M was expressed as cell damaging rate (%) as follows:
cell damaging rate (%)=[1-(absorbance in sample group/absorbance in control group)]×100
Accordingly, the smaller value is better in the cell damaging rate.

For `Cc1c(N(C)C)c(=O)n(-c2ccccc2)n1C` [aminopyrine], the pKa in data set [1] is listed as 5.0.

For `CC(C)CN1CCN(C(=O)c2ccc(OCc3ccc(F)cc3)c(N)c2)CC1.Cl.Cl` [Example 1, 1-[3-amino-4-(4-fluorobenzyloxy)benzoyl]-4-isobutylpiperazine dihydrochloride], in data set [2], the “WIS: ulcer formation inhibitory rate” value was 88%.

On to `COc1cc(C(=O)N2CCN(CC(C)C)CC2)ccc1OCc1ccc(F)cc1.Cl` [Example 7, 1-[4-(4-fluorobenzyloxy)-3-methoxybenzoyl]-4-isobutylpiperazine hydrochloride], for which, in data set [2], the “WIS: ulcer formation inhibitory rate” value is reported as 48%. Also, in data set [3], the inhibition at 10 µM is 100%. The cytotoxicity at 4 h, 100 µM in data set [4] was -72%.

Regarding `CC(C)Cc1cc(C(=O)N2CCN(CCOC(=O)c3ccc4c(c3)OCO4)CC2)ccc1OCc1ccc(F)cc1` [Example 10, 1-[4-(4-fluorobenzyloxy)-3-isobutylbenzoyl]-4-[2-(piperonyloyloxy)ethyl]piperazine], the “WIS: ulcer formation inhibitory rate” value in data set [2] was 54%. Moreover, in data set [2] (in vivo), the “anti-ulcer effect (in words)” value is listed as “sufficient effects”. In addition, the inhibition at 10 µM in data set [3] is 100%. In addition, the cytotoxicity at 4 h, 100 µM in data set [4] amounted to 34%.

As for `CC(C)Cc1cc(C(=O)N2CCN(CC(C)C)CC2)ccc1OCc1ccc(C#N)cc1.Cl` [Example 11, 1-[4-(4-cyanobenzyloxy)-3-isobutylbenzoyl]-4-isobutylpiperazine hydrochloride], the “WIS: ulcer formation inhibitory rate” value in data set [2] is 94%. In data set [3], the inhibition at 10 µM was determined as 100%. In addition, the cytotoxicity at 4 h, 100 µM in data set [4] was -77%.

The record behind these values is patent US5756505A, “N-acylpiperazine derivative, antibacterial drug and anti-ulcer drug” (Shiseido Co., Ltd., priority 1995, dated 1998).
